Data on twelve molecules can be found in patent publication US20260274814A1, “THIENYL COMPOUNDS FOR THE TREATMENT OF A CENTRAL NERVOUS SYSTEM DISEASE OR DISORDER” (Coreterra Therapeutics, Inc., priority 2023, published 2026).

Counter-ions that a name gives are not always drawn. Like-named read-outs stand apart in the source and are kept apart here.

The assay deals with mice. Put plainly: Neuropharmacological Assay (SmartCube): automated behavioral signature of compound-treated mice compared with a database of reference drug classes. It counts as in vivo. The conditions noted are these: for MED / minimal effective dose / MED (minimal effective dose): i.p., that dose is shown; for minimal effective dose: Mus musculus, ip. The method, boiled down:
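Compounds in N-methyl-2-pyrrolidone/polyethylene glycol/propylene glycol were given i.p. 15 min before testing, at 3 doses; values shown are for 3.0 mg/kg. Video-captured behaviour was matched by algorithm against reference drug classes, giving a probability per class. MED: lowest dose reaching ≥45% total activity.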

Setting [1] is: SmartCube class probability, 3.0 mg/kg i.p., 15 min before test.
Where [2] appears, read: SmartCube class probability, 3.0 mg/kg i.p., 15 min before test, hydrochloride, 3 mg/kg.
The mark [3] stands for this setting: minimal effective dose: dose having 45% or more total activity in SmartCube, if only one dose tested, hydrochloride.
The mark [4] stands for this setting: minimal effective dose: dose having 45% or more total activity in SmartCube, if only one dose tested, read-out: MED.
Setting [5] is: minimal effective dose: dose having 45% or more total activity in SmartCube, if only one dose tested.
Setting [6] is: probability that activity matches this class of agents, 3.0 mg/kg i.p., 15 min before test.
Where [7] appears, read: probability that activity matches this class of agents, 3.0 mg/kg i.p., 15 min before test, 3 mg/kg.
Setting [8] is: probability that activity matches this class of agents, 3.0 mg/kg i.p., 15 min before test, hydrochloride, 3 mg/kg.
[9] abbreviates: SmartCube probability class, 3.0 mg/kg dose, i.p. 15 min before the behavioral test.
Where [10] appears, read: SmartCube probability class, 3.0 mg/kg dose, i.p. 15 min before the behavioral test, hydrochloride, 3 mg/kg.

For `CNC1CCc2scc(C#N)c2C1` (single isomer, unassigned) [Compound 175, 5-(methylamino)-4,5,6,7-tetrahydrobenzothiophene-3-carbonitrile hydrochloride], under setting [1], the AD entry was “ND (^ <4%)”, the AG result was “ND (^ <4%)”, the AN entry is recorded as “ND (^ <4%)” and the AP result was “ND (^ <4%)”. Under setting [1], the CE result is recorded as “ND (^ <4%)”, the HL result was “ND (^ <4%)”, the MS entry is listed as “ND (^ <4%)” and the PS result is recorded as “ND (^ <4%)”. Moreover, under setting [1], the SH result is “+ (≥4%)” and the UK result is “ND (^ <4%)”. Further, the AX entry under setting [2] was “+++ (≥49%)”. Further, under setting [3], the MED is reported as 3 mpk.
As to `NC1CCc2c(F)csc2C1` (stereo not drawn) [Compound 209, 3-fluoro-4,5,6,7-tetrahydrobenzothiophen-6-amine hydrochloride], under setting [4], the minimal effective dose is less than 3 mg/kg. Under setting [1], the AD result is listed as “++ (≥24%)”, the AG result is recorded as “ND (^ <4%)”, the AN entry was “ND (^ <4%)” and the AP result is given as “+ (≥4%)”. Moreover, under setting [1], the AX result was “+++ (≥49%)”, the CE result is on record as “+ (≥4%)”, the HL result is recorded as “ND (^ <4%)” and the MS entry was “ND (^ <4%)”. Further, under setting [1], the PS entry is given as “ND (^ <4%)”, the SH result is “ND (^ <4%)” and the UK result is given as “ND (^ <4%)”.
On to `CNC1COc2c(Cl)csc2C1` (stereo not drawn) [Compound 222, 3-chloro-N-methyl-6,7-dihydro-5H-thieno[3,2-b]pyran-6-amine hydrochloride], for which the minimal effective dose under setting [4] is less than 3 mg/kg. Besides, under setting [1], the AD entry is on record as “ND (^ <4%)”, the AG result was “ND (^ <4%)”, the AN entry was “ND (^ <4%)” and the AP result is recorded as “++++ (≥74%)”. Under setting [1], the AX entry was “ND (^ <4%)”, the CE result is “ND (^ <4%)”, the HL entry was “ND (^ <4%)” and the MS entry is on record as “ND (^ <4%)”. Also, under setting [1], the PS result is given as “ND (^ <4%)”, the SH entry is “ND (^ <4%)” and the UK entry is reported as “ND (^ <4%)”.
`NC1CCc2cscc2C1` (single isomer, unassigned) [Compound 167, 4,5,6,7-tetrahydro-2-benzothiophen-5-amine hydrochloride]: under setting [1], the AG entry was “ND (^ <4%)”, the AN entry is given as “ND (^ <4%)”, the AX result is “+++ (≥49%)” and the CE entry is listed as “ND (^ <4%)”. In addition, under setting [1], the HL entry is “ND (^ <4%)”, the MS result is on record as “ND (^ <4%)”, the SH entry is reported as “ND (^ <4%)” and the UK entry is given as “ND (^ <4%)”. Also, under setting [2], the AD entry was “++ (≥24%)”, the AP result was “ND (^ <4%)” and the PS entry is recorded as “+ (≥4%)”. Moreover, the MED under setting [5] was 1 mpk.
`CNC1CCc2c(C(F)(F)F)csc2C1` (single isomer, unassigned) [Compound 231, N-methyl-3-(trifluoromethyl)-4,5,6,7-tetrahydrobenzothiophen-6-amine hydrochloride]: under setting [1], the AG entry is on record as “ND (^ <4%)”, the AN entry is on record as “ND (^ <4%)”, the AP result is given as “ND (^ <4%)” and the AX result is “ND (^ <4%)”. Under setting [1], the CE entry is recorded as “ND (^ <4%)”, the HL result is “ND (^ <4%)”, the MS result is “ND (^ <4%)” and the PS result was “ND (^ <4%)”. Also, the SH result under setting [1] is “ND (^ <4%)”. Further, under setting [2], the AD entry was “ND (^ <4%)” and the UK entry was “+++ (≥49%)”. In addition, the MED under setting [5] is recorded as 3 mpk.
As for `Cl.FC1(F)CC(NC2CCc3cscc3C2)C1` (single isomer, unassigned) [Compound 127, N-(3,3-difluorocyclobutyl)-4,5,6,7-tetrahydro-2-benzothiophen-5-amine hydrochloride], the “MED (minimal effective dose)” value (dose having 45% or more total activity in SmartCube, if only one dose was tested, hydrochloride) was determined as 30 mpk. Under setting [6], the AD entry is reported as “ND (^ <4%)”, the AG entry is “ND (^ <4%)”, the AN result was “ND (^ <4%)” and the AP entry is on record as “ND (^ <4%)”. Further, under setting [6], the AX entry is “ND (^ <4%)”, the CE entry is recorded as “ND (^ <4%)”, the HL result is recorded as “ND (^ <4%)” and the MS entry was “ND (^ <4%)”. Under setting [6], the PS result is listed as “ND (^ <4%)”, the SH entry was “ND (^ <4%)” and the UK result is “ND (^ <4%)”.
As to `CNC1CCc2sc(F)cc2C1` (single isomer, unassigned; enantiomer 2) [Compound 99, 2-fluoro-N-methyl-4,5,6,7-tetrahydrobenzothiophen-5-amine hydrochloride enantiomer 2], the “MED (minimal effective dose)” value (dose having 45% or more total activity in SmartCube, if only one dose was tested) is given as 3 mpk. In addition, under setting [6], the AD result is on record as “ND (^ <4%)”, the AG entry is recorded as “ND (^ <4%)”, the AN result is on record as “ND (^ <4%)” and the CE entry is recorded as “ND (^ <4%)”. Besides, under setting [6], the HL result is “ND (^ <4%)”, the MS entry was “ND (^ <4%)”, the PS entry is given as “ND (^ <4%)” and the SH result was “ND (^ <4%)”. Besides, under setting [7], the AP result is “ND (^ <4%)”, the AX entry is listed as “ND (^ <4%)” and the UK result was “+++ (≥49%)”.
As for `Cc1cc2c(s1)CC(N)CO2` (stereo not drawn) [Compound 188, 2-methyl-6,7-dihydro-5H-thieno[3,2-b]pyran-6-amine hydrochloride], under setting [4], the minimal effective dose is greater than 3 mg/kg. In addition, under setting [1], the AD entry is listed as “ND (^ <4%)”, the AG result is recorded as “ND (^ <4%)”, the AN result is “ND (^ <4%)” and the AP result is recorded as “ND (^ <4%)”. Under setting [1], the AX result is listed as “+ (≥4%)”, the CE entry is recorded as “ND (^ <4%)”, the HL entry is given as “ND (^ <4%)” and the MS entry is on record as “ND (^ <4%)”. In addition, under setting [1], the PS result is listed as “ND (^ <4%)”, the SH result is reported as “ND (^ <4%)” and the UK entry was “++ (≥24%)”.
`CNC1CCc2csc(C)c2C1.Cl` (single isomer, unassigned) [Compound 40, N, 3-dimethyl-4,5,6,7-tetrahydro-2-benzothiophen-5-amine hydrochloride]: the minimal effective dose (dose having 45% or more total activity in SmartCube, if only one dose was tested, read-out: MED (minimal effective dose)) amounted to 1 mg/kg. Also, under setting [6], the AG entry is recorded as “ND (^ <4%)”, the AN entry is on record as “ND (^ <4%)”, the AP entry is listed as “++ (≥24%)” and the CE result is recorded as “ND (^ <4%)”. Under setting [6], the HL result was “ND (^ <4%)”, the MS entry is given as “ND (^ <4%)”, the PS entry is recorded as “ND (^ <4%)” and the SH result is recorded as “ND (^ <4%)”. For the same molecule, the UK entry under setting [6] is listed as “ND (^ <4%)”. Under setting [8], the AD result is “ND (^ <4%)” and the AX result is given as “+++ (≥49%)”.
On to `CNC1Cc2scc(C3CC3)c2C1` (single isomer, unassigned) [Compound 320, 3-cyclopropyl-N-methyl-5,6-dihydro-4H-cyclopenta[b]thiophen-5-amine hydrochloride], for which the minimal effective dose (minimal effective dose: dose having 45% or more total activity in SmartCube, if only one dose was tested, read-out: MED) is greater than 3 mg/kg. In addition, under setting [9], the AD result is reported as “ND (^ <4%)”, the AG entry is reported as “ND (^ <4%)”, the AN result was “ND (^ <4%)” and the CE result is “ND (^ <4%)”. Further, under setting [9], the HL entry is recorded as “ND (^ <4%)”, the MS result is given as “ND (^ <4%)”, the PS entry is on record as “ND (^ <4%)” and the SH entry was “ND (^ <4%)”. In addition, under setting [10], the AP result was “ND (^ <4%)”, the AX result is listed as “ND (^ <4%)” and the UK result is listed as “++ (≥24%)”.
Regarding `NC1CCc2scc(C(F)(F)F)c2C1` (single isomer, unassigned) [Compound 255, 3-(trifluoromethyl)-4,5,6,7-tetrahydrobenzothiophen-5-amine hydrochloride], under setting [1], the AD result is reported as “ND (^ <4%)”, the AG result was “ND (^ <4%)”, the AN entry was “ND (^ <4%)” and the AP result is given as “ND (^ <4%)”. Under setting [1], the AX result is on record as “ND (^ <4%)”, the CE result is “ND (^ <4%)”, the HL entry is recorded as “ND (^ <4%)” and the MS result is given as “ND (^ <4%)”. Further, under setting [1], the PS entry is given as “ND (^ <4%)” and the SH entry was “ND (^ <4%)”. Also, the UK entry under setting [2] was “ND (^ <4%)”. Besides, under setting [5], the MED is on record as greater than 3 mpk.
`CNC1CCc2csc(C3CC3)c2C1` (single isomer, unassigned) [Compound 155, 3-cyclopropyl-N-methyl-4,5,6,7-tetrahydro-2-benzothiophen-5-amine hydrochloride]: under setting [1], the AG result is recorded as “ND (^ <4%)”, the AN entry is “ND (^ <4%)”, the AP result is given as “ND (^ <4%)” and the AX result was “ND (^ <4%)”. Further, under setting [1], the HL result is recorded as “ND (^ <4%)”, the PS entry is “ND (^ <4%)” and the UK result is “ND (^ <4%)”. Also, under setting [2], the AD entry is “+ (≥4%)”, the CE result is given as “+ (≥4%)”, the MS result is “+ (≥4%)” and the SH entry is recorded as “++ (≥24%)”. In addition, under setting [3], the MED is given as 0.3 mpk.
